Tests used:
[1] = target: T1, Inosine-5'-monophosphate dehydrogenase 1 (Homo sapiens, UniProt P20839); experiment: The compound was tested for the inhibition towards IMP(Inosine 5'-monophosphate) substrate of Inosine-5'-monophosphate dehydrogenase 1
[2] = target: T1, Inosine-5'-monophosphate dehydrogenase 1; experiment: The compound was tested for the inhibition towards […] (Nicotinamide adenine dinucleotide) substrate of Inosine-5'-monophosphate dehydrogenase 1
[3] = target: T2, Inosine-5'-monophosphate dehydrogenase 2 (Homo sapiens, UniProt P12268); experiment: The compound was tested for the inhibition towards IMP(Inosine 5'-monophosphate) substrate of Inosine-5'-monophosphate dehydrogenase 2
[4] = target: T2, Inosine-5'-monophosphate dehydrogenase 2; experiment: The compound was tested for the inhibition towards […] (Nicotinamide adenine dinucleotide) substrate of Inosine-5'-monophosphate dehydrogenase 2

T1 sequence (P20839 whole entry): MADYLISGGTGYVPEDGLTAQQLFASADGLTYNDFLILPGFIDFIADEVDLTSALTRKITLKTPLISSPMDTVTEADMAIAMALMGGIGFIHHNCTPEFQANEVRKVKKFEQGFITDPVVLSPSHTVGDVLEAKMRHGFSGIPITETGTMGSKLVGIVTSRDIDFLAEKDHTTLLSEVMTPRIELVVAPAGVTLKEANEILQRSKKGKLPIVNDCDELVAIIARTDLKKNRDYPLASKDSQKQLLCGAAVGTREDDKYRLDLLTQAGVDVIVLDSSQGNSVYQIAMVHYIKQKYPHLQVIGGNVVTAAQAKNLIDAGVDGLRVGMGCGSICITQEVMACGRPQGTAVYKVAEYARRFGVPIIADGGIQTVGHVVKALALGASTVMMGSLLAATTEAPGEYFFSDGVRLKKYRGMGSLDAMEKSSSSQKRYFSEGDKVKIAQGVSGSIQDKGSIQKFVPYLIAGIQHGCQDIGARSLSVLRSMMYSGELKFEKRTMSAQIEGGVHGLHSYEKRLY

Compound	Ki [1]	Ki [2]	Ki [3]	Ki [4]
NC(=O)c1coc([C@@H]2O[C@H](COP(=O)(O)OP(=O)(O)OC[C@H]3O[C@@H](n4cnc5c(N)ncnc54)[C@H](O)[C@@H]3O)[C@@H](O)[C@H]2O)c1	38000 nM	135000 nM	57900 nM	99100 nM
NC(=O)c1c[se]c([C@@H]2O[C@H](COP(=O)(O)OP(=O)(O)OC[C@H]3O[C@@H](n4cnc5c(N)ncnc54)[C@H](O)[C@@H]3O)[C@@H](O)[C@H]2O)c1	580 nM	260 nM	1100 nM	270 nM
NC(=O)c1csc([C@@H]2O[C@H](COP(=O)(O)OP(=O)(O)OC[C@H]3O[C@@H](n4cnc5c(N)ncnc54)[C@H](O)[C@@H]3O)[C@@H](O)[C@H]2O)c1	370 nM	340 nM	320 nM	340 nM
NC(=O)c1c[se]c([C@@H]2O[C@H](COP(=O)(O)OP(=O)(O)OC[C@H]3O[C@@H](n4cnc5c(N)ncnc54)[C@H](O)[C@@H]3O)[C@@H](O)[C@H]2O)n1	33 nM	62 nM	21 nM	26 nM

From ChEMBL document CHEMBL1131220, “Isosteric analogues of nicotinamide adenine dinucleotide derived from furanfurin, thiophenfurin, and selenophenfurin as mammalian inosine monophosphate dehydrogenase (type I and II) inhibitors” (J Med Chem, 1998)
